From patent US20140303144A1, “COMPOUNDS AND METHODS OF TREATING HYPERTENSION” (Medivation Technologies, Inc., priority 2011, published 2014)

tested on: New Zealand White rabbits; assay: not given; settings: conscious rabbits, intravenous cumulative doses, positive control

Structure (SMILES)	maximum drop of arterial blood pressure
Clc1cccc(Cl)c1N=C1NCCN1 [Clonidine]	−6 mmHg

tested on: SH-SY5Y cells; assay: Cell viability assay (MTS reduction) against 4-Br-A23187 challenge; format: cell-based; settings: Homo sapiens, SH-SY5Y, compound 10 nM, 4-Br-A23187 (2 μM) for 24 h, Control = 100, Vehicle = 0, read-out: Relative Cytoprotective capacity
Protocol: SH-SY5Y cells cultured in DMEM/F12 media supplemented with 10% FBS were seeded in 96-well microplates at 150,000 cells/cm^2. After 24 h, cells were depleted from FBS and kept in culture for 24 h before the experiment. A stock solution was prepared by dissolving the calcium ionophore 4-Br-A23187 (Calbiochem Cat. N^o 100107) in DMSO at 25 mM. Cells were then treated with 4-Br-A23187 (2 μM), hydrogen peroxide (300 μM) or the mitochondrial toxin rotenone (25 μM) in the presence of vehicle or Compound of the Invention for 24 h. Cell death was determined by measurements of LDH release according to the Cytotoxicity Detection KitPlus (Roche, Mannheim, Germany). Cell viability was determined by measuring the capacity of cells to metabolize MTS tetrazolium (MTS) according to the Cytotoxicity Detection KitPlus (Roche, Mannheim, Germany) and MTS reduction was assessed by the CellTiter 96® AQueous One Solution Cell Proliferation assay (Promega Corporation, Madison, Wis., USA). Compounds were screened at 10 nM, using DMSO as vehicle. Assay results for the experiments with Br-A23187 were presented as the MTS reduction capacity (cell viability) of untreated cells (control), 4-Br-A23187-treated cells (vehicle), and co-incubation of Br-A23187 with Compounds of the Invention treated cells and using […] (FCCP) at 10 μM for 30 min as a control. This assay assesses the ability of the test compounds to protect against cell death that was mediated by mitochondrial dysfunction. In the assay, the calcium ionophore 4-Br-A23187 was used to challenge the cells, causing calcium levels to rise in mitochondria, which leads to depolarization and cell death. Test compounds were assessed for their ability to prevent cell death in response to challenge with 4-Br-A23187.

Structure (SMILES)	viability at 0.01 µM
Cc1ccc2c(c1)c1c3n2CC(c2ccc(F)cc2)CC3(C)CN(C)C1 (stereo not drawn) [D2]	38.4%
Cc1ccc2c(c1)c1c3n2CC=C(c2ccc(F)cc2)CC3(C)CN(C)C1 (stereo not drawn) [D5]	72.1%
Cc1ccc2c(c1)c1c3n2CC(c2ccc(F)cc2)CCC3(C)CN(C)C1 (stereo not drawn) [D7]	72.1%
Cc1ccc2c(c1)c1c3n2CC(c2ccncc2)OC(C)CC3(C)CN(C)C1 (stereo not drawn) [D8]	73.1%
Cc1ccc2c(c1)c1c3n2CC(C)(c2ccncc2)OC(C)CC3(C)CN(C)C1 (stereo not drawn) [D9]	81.1%

same assay, conditions: compound 10 nM, 4-Br-A23187 (2 μM) for 24 h, Control = 100, Vehicle = 0

Structure (SMILES)	Relative Cytoprotective capacity
Cc1ccc2c(c1)c1c(n2C)C(C)(CCc2ccc(C)nc2)CN(C)C1 (stereo not drawn) [C45]	4.348
Cc1ccc2[nH]c3c(c2c1)CN(C)CC3(C)CCc1ccc(C)nc1 (stereo not drawn) [C46]	−0.04527
Cc1ccc2c(c1)c1c(n2C)C(C)(CCc2nc(-c3ccccc3)cs2)CN(C)C1 (stereo not drawn) [C48]	52.14
